Tests used:
[1] = ^14C‐plasma, liver, and kidney distribution study with or without OATP inhibitors; assay type: in vivo, Crl:CD1(ICR) mice; details: for ^14C‐Concentration, Liver / ^14C‐Concentration, Plasma / ^14C‐Concentration, Kidney: Male; for Liver/plasma ratio of ^14C‐concentration: oral or intraperitoneal co‐administration of DGX; for ^14C‐concentration in liver: 2 h
Experimental: (§1) Crl:CD1(ICR) mice at the age of 7 weeks were purchased from Charles River Laboratories Japan, Inc., Hino Breeding Center. The mice at the age of 8 or 9 weeks were dosed after completing a 7‐day quarantine period and an additional 0‐ to 7‐day acclimatization period. All animal experiments were conducted in accordance with the Guidance for the Care and Use of Laboratory Animals in our laboratory, which corresponds to the Guidelines for Proper Conduct of Animal Experiments (Science Council of Japan). Animals were maintained under constant environmental conditions: room temperature, 21−25°C; relative humidity, 55% ±15%; ventilation, 10 air exchanges per hour; and artificial lighting, from 8:00 am to 8:00 pm. The animals were provided with pelleted diet and water ad libitum. […] All animals were euthanized by bleeding from the abdominal artery under anesthesia.
(§2) [^14C]Epyrifenacil was isotopically diluted with the unlabeled test compound to adjust the specific activity to 5.00 MBq/mg. After evaporation of the solvent under nitrogen gas flow, labeled material was suspended in 0.5% (w/v) methylcellulose solution at a concentration of 1 mg/5 ml by grinding in a mortar. The suspension was stored frozen until the start of dosing. The radiochemical purity of the dosing suspension was analyzed by radio‐HPLC and was confirmed to be >99%. […] These dosing suspensions were stored in a refrigerator until dosing commenced.
Three mice per sex at 8 weeks old were given a single oral dose of [^14C]epyrifenacil at 1 mg/kg with or without co‐administration of OATP inhibitors. […] At 2 h after administration of [^14C]epyifenacil, the animals were euthanized by whole blood collection from the abdominal aorta under anesthesia with isoflurane. The sampling time point was selected as the time around T max based on the result of the blood ^14C‐concentration study. Then, the liver and kidney were dissected out, and the amount of ^14C was measured. Aliquots of heparinized blood samples were separated into blood cells and plasma by centrifugation at 2000g for 10 min at 4°C. The total weight of the liver and kidney was determined for each animal. Two aliquots of plasma and tissue samples (approximately 0.05–0.1 g) were weighed in a glass vial, and the radioactivity was measured.

[2] = Blood ^14C‐concentrations study; assay type: in vivo, Crl:CD1(ICR) mice; details: 1 mg/kg single oral
Experimental: as §1
as §2, with “dosing.” for “dosing. The radiochemical purity of the dosing suspension was analyzed by radio‐HPLC and was confirmed to be >99%.”
Two mice per sex at 8 weeks old were given a single oral dose of [^14C]epyrifenacil at 1 mg/kg. Approximately 0.06–0.08 g of blood sample was periodically taken from the saphenous vein at 1, 2, 4, and 8 h after administration, and transferred to vials to measure the radioactivity in whole blood. […] AUC0‐∞ was calculated as the sum of AUC0‐8 h and AUC8 h‐∞. AUC0‐8 h was obtained using a trapezoidal rule, and AUC8 h‐∞ was calculated with a mono‐exponential equation describing the ^14C‐disappearance phase.

[3] = 2 h after epyrifenacil 1 mg/kg p.o. + Digoxin 100 mg/kg i.p.
[4] = 2 h after epyrifenacil 1 mg/kg p.o. + Digoxin 100 mg/kg i.p., listed as [^14C]Epyrifenacil
[5] = 2 h after epyrifenacil 1 mg/kg p.o. + Digoxin 200 mg/kg p.o.
[6] = 2 h after epyrifenacil 1 mg/kg p.o. + Digoxin 200 mg/kg p.o., listed as [^14C]Epyrifenacil
[7] = 2 h after epyrifenacil 1 mg/kg p.o. + Rifampicin 200 mg/kg p.o.
[8] = 2 h after epyrifenacil 1 mg/kg p.o. + Rifampicin 200 mg/kg p.o., listed as [^14C]Epyrifenacil
[9] = 2 h after epyrifenacil 1 mg/kg p.o., no inhibitor
[10] = 2 h after epyrifenacil 1 mg/kg p.o., no inhibitor, listed as [^14C]Epyrifenacil

In the case of CCOC(=O)COc1ncccc1Oc1cc(-n2c(=O)cc(C(F)(F)F)n(C)c2=O)c(F)cc1Cl [Epyrifenacil, ethyl[(3‐{2‐chloro‐4‐fluoro‐5‐[3‐methyl‐2,6‐dioxo‐4‐(trifluoromethyl)‐3,6‐dihydropyrimidin‐1(2H)‐yl]phenoxy}pyridin‐2‐yl)oxy]acetate], the “^14C‐Concentration, Liver” value [1, 3] is reported as 5.527 ± 1.3453 μg eq. of epyrifenacil/g tissue, the “^14C‐Concentration, Plasma” value [1, 3] is reported as 0.083 ± 0.0027 μg eq. of epyrifenacil/g tissue and the “^14C‐Concentration, Kidney” value [1, 4] is reported as 0.140 μg eq. of epyrifenacil/g tissue. The “^14C‐Concentration, Liver” value [1, 4] was 5.527 μg eq. of epyrifenacil/g tissue, the “^14C‐Concentration, Plasma” value [1, 4] was 0.083 μg eq. of epyrifenacil/g tissue and the “^14C‐Concentration, Kidney” value [1, 5] was 0.044 ± 0.0051 μg eq. of epyrifenacil/g tissue. For the same compound, the “^14C‐Concentration, Liver” value [1, 5] was 1.647 ± 0.7217 μg eq. of epyrifenacil/g tissue, the “^14C‐Concentration, Plasma” value [1, 5] was 0.017 ± 0.0064 μg eq. of epyrifenacil/g tissue and the “^14C‐Concentration, Kidney” value [1, 6] was 0.044 μg eq. of epyrifenacil/g tissue. The “^14C‐Concentration, Liver” value [1, 6] was 1.647 μg eq. of epyrifenacil/g tissue, the “^14C‐Concentration, Plasma” value [1, 6] was 0.017 μg eq. of epyrifenacil/g tissue and the “^14C‐Concentration, Kidney” value [1, 7] was 0.144 ± 0.0794 μg eq. of epyrifenacil/g tissue. The “^14C‐Concentration, Liver” value [1, 7] was 1.671 ± 1.2478 μg eq. of epyrifenacil/g tissue, the “^14C‐Concentration, Plasma” value [1, 7] was 0.151 ± 0.0791 μg eq. of epyrifenacil/g tissue and the “^14C‐Concentration, Kidney” value [1, 8] was 0.144 μg eq. of epyrifenacil/g tissue. The “^14C‐Concentration, Liver” value [1, 8] was 1.671 μg eq. of epyrifenacil/g tissue, the “^14C‐Concentration, Plasma” value [1, 8] was 0.151 μg eq. of epyrifenacil/g tissue and the “^14C‐Concentration, Kidney” value [1, 9] was 0.124 ± 0.0180 μg eq. of epyrifenacil/g tissue. For the same compound, the “^14C‐Concentration, Liver” value [1, 9] was 6.763 ± 0.1014 μg eq. of epyrifenacil/g tissue, the “^14C‐Concentration, Plasma” value [1, 9] was 0.092 ± 0.0066 μg eq. of epyrifenacil/g tissue and the “^14C‐Concentration, Kidney” value [1, 10] was 0.124 μg eq. of epyrifenacil/g tissue. The “^14C‐Concentration, Liver” value [1, 10] was 6.763 μg eq. of epyrifenacil/g tissue, the “^14C‐Concentration, Plasma” value [1, 10] was 0.092 μg eq. of epyrifenacil/g tissue and the “Liver/plasma ratio of ^14C‐concentration” value ([1]; female) was 41–43. For the same compound, the “^14C‐concentration in liver” value ([1]; females, co‐administration of RIF 200 mg/kg oral) was 0.880 ppm, the “^14C‐concentration in liver” value ([1]; females, epyrifenacil 1 mg/kg p.o., no inhibitor) was 5.136 ± 1.1225 ppm and the “Liver/plasma ratio of ^14C‐concentration” value ([1]; male) was 67–97. The “^14C‐concentration in liver” value ([1]; males, co‐administration of RIF 200 mg/kg oral) was 1.671 ppm, the “^14C‐concentration in liver” value ([1]; males, epyrifenacil 1 mg/kg p.o., no inhibitor, ppm = µg eq. of epyrifenacil/g) was 6.763 ± 0.1014 ppm and the “^14C‐Concentration in blood” value ([2]; 1 h, Female Animal_1) was 0.127 µg eq. of epyrifenacil/g. The “^14C‐Concentration in blood” value ([2]; 1 h, Female Animal_2) was 0.073 µg eq. of epyrifenacil/g, the “^14C‐Concentration in blood” value ([2]; 1 h, Male Animal_1) was 0.030 µg eq. of epyrifenacil/g and the “^14C‐Concentration in blood” value ([2]; 1 h, Male Animal_2) was 0.030 µg eq. of epyrifenacil/g. For the same compound, the “^14C‐Concentration in blood” value ([2]; 2 h, Female Animal_1) was 0.111 µg eq. of epyrifenacil/g, the “^14C‐Concentration in blood” value ([2]; 2 h, Female Animal_2) was 0.064 µg eq. of epyrifenacil/g and the “^14C‐Concentration in blood” value ([2]; 2 h, Male Animal_1) was 0.031 µg eq. of epyrifenacil/g. The “^14C‐Concentration in blood” value ([2]; 2 h, Male Animal_2) was 0.034 µg eq. of epyrifenacil/g, the “^14C‐Concentration in blood” value ([2]; 4 h, Female Animal_1) was 0.076 µg eq. of epyrifenacil/g and the “^14C‐Concentration in blood” value ([2]; 4 h, Female Animal_2) was 0.060 µg eq. of epyrifenacil/g. The “^14C‐Concentration in blood” value ([2]; 4 h, Male Animal_1) was 0.028 µg eq. of epyrifenacil/g, the “^14C‐Concentration in blood” value ([2]; 4 h, Male Animal_2) was 0.051 µg eq. of epyrifenacil/g and the “^14C‐Concentration in blood” value ([2]; 8 h, Female Animal_1) was 0.045 µg eq. of epyrifenacil/g. The “^14C‐Concentration in blood” value ([2]; 8 h, Female Animal_2) was 0.061 µg eq. of epyrifenacil/g, the “^14C‐Concentration in blood” value ([2]; 8 h, Male Animal_1) was 0.024 µg eq. of epyrifenacil/g and the “^14C‐Concentration in blood” value ([2]; 8 h, Male Animal_2) was 0.033 µg eq. of epyrifenacil/g. The “C max of ^14C in blood” value ([2]; female mice) was 0.100 μg eq. of epyrifenacil/g and the “C max of ^14C in blood” value ([2]; male mice) was 0.040 μg eq. of epyrifenacil/g.
